Experiment: Small volume in vitro release test in 50 ml 0.1N HCl (model of fasted stomach)
Format: physicochemical
Details: 37° C., 150 rpm
Description: The formulations were tested for their small volume in vitro release characteristics in 50 ml 0.1N HCl at 37° C. and 150 rpm using the following procedure: III. Instrumentation (or Equivalent) a. Automated Dissolution System comprising of: Hanson SR8 Plus Test Station Hanson Auto Plus Maximiser System Controller Hanson Auto Plus MultiFill Fraction Collector b. HPLC System comprising of: pump—Merck Hitachi L-7100 autoinjector—Merck Hitachi L-7200 column oven—Merck Hitachi L-7300 detector—Merck Hitachi L-7400 interface and integration software—Merck Hitachi D-7000
0.1N HCl Preparation Dilute 8.5 ml HCl 37% to 1 liter with purified water. Procedure Place one weighed capsule in each vessel containing 0.1N HCl and immediately operate the apparatus for 30 min. Unless otherwise specified, 3 ml samples are withdrawn from each vessel and immediately filtered through PTFE membranes at 15 and 30 min.
The small volume was chosen as a model of the conditions in a fasted stomach.

## CC(C)OC(=O)C(C)(C)Oc1ccc(C(=O)c2ccc(Cl)cc2)cc1 [Micronized Fenofibrate]
  dissolution in 50 ml 0.1N HCl (in words): no dissolution at all
15 min
  % dissolved 15 min: 0%
30 min
  % dissolved 30 min: 0%

Reference: patent US20070015834A1 (priority 2005, published 2007)
